# Laboratory results taken from publication PMC6018403 (Frontiers in Pharmacology, 2018).
# Test: Multi-component pharmacokinetic study of GQD, GQD-GC and single herb extracts in rats (plasma, LC/MS/MS)
# Assay type: in vivo, Sprague-Dawley rats
# Settings: male, Sprague-Dawley, rat, plasma, po, 3.54 g/kg, HL (Huang-Lian) group: rats, oral extract 3.54 g/kg, plasma; read-out: AUClast
# Method: Male Sprague-Dawley rats (220–250 g) were used for PK study, and the details were described in Supplemental Data. All procedures were in accordance with the National Institutes of Health Guide for the Care and Use of Laboratory Animals.
# For PK study of GQD and its component herbs, rats were randomly divided into six groups (n = 10 for each group) before oral administration.
# All blood samples were immediately centrifuged at 6,000 rpm (4°C) for 20 min to obtain plasma. The plasma samples were stored at −80°C.
# A Finnigan TSQ Quantum triple quadrupole mass spectrometer was connected to a Surveyor HPLC via ESI interface (ThermoFisher). High purity nitrogen was used as the sheath and auxiliary gas; Ultra-high purity argon was used as the collision gas (1.5 mTorr). Q1 and Q3 quadrupoles were set at unit resolution. […] The column temperature was 40°C. The mobile phase consisted of acetonitrile containing 2% (v/v) methanol (A) and water containing 0.1% (v/v) formic acid (B). […] An aliquot of 5 μL was injected for analysis. UV spectra were obtained by scanning from 200 to 400 nm. The mass spectrometer was operated in the (+)-ESI mode. The optimized parameters were as follows: sheath gas (N2), 50 arb; auxiliary gas (N2), 5 arb; spray voltage, 4.0 kV; capillary temperature, 330°C; collision energy, see Table S1. Analytes were detected in the selected reaction monitoring (SRM) mode. Data were processed by Xcalibur 2.0.7 software (ThermoFisher).
# LC/MS/MS calibration and quantitation data were processed with Xcalibur 2.0.7 software (ThermoFisher). The maximal plasma concentrations (Cmax) and their time of occurrence (Tmax) were obtained directly from the measured data. Other pharmacokinetic parameters were calculated by non-compartment or compartment models using WinNonlin® software (v6.1, Pharsight). Unless otherwise stated, results were expressed as the mean ± SD. Statistical significance in differences of the means was determined by Student's t–test, with a significance level of P < 0.05.
# Herbal materials and extracts.
# The four component herbs, Puerariae Lobatae Radix (Ge-Gen, GG), Scutellariae Radix (Huang-Qin, HQ), Coptidis Rhizoma (Huang-Lian, HL), and Glycyrrhizae Radix et Rhizoma Praeparata cum Melle (Gan-Cao, GC) were purchased from Tianheng Pharmacy. GQD was prepared by decocting the four component herbs […]
# pre-extraction of Ge-Gen using 200 mL of water for 0.5 h. The decoctions were combined, filtered, and concentrated in vacuum at 50 °C. GQD-GC was prepared using the same procedure, except that Gan-Cao was removed from the formula. Final concentration of the GQD-GC extract was equivalent to 1.0 g of the crude drugs per mL. For single herb extracts, the herbs were decocted in 8-fold volume of water for […]
# Final concentrations of the extracts were 1.0 g/mL for Ge-Gen, and 0.5 g/mL for Huang-Qin, Huang-Lian and […]
# For pharmacokinetic study, Male Sprague-Dawley rats (220-250 g) were obtained from the Laboratory Animal Center of Peking University Health Science Center. The […]
# The rats had free access to tap water and soy-free custom diet (Ke’ao Xieli Co.). All procedures were in accordance with the National Institutes of Health Guide for the Care and Use of Laboratory Animals […]
# Experimental details for the PK study
# 1. Preparation of internal standard solution, calibration standard solutions, and quality control solutions […]
# internal standard solution. Reference standard compounds were dissolved in the internal standard solution to prepare individual stock solutions (1.0 mg/mL). These […]
# each compound. The standard solution was then serially diluted to obtain calibration […]
# Quality control stock solutions were prepared at three concentration levels as high QC (HQC), middle QC (MQC), and low QC (LQC), based on linear ranges of the analytes.
# 2.1. Sample preparation for pharmacokinetic study
# The calibration standard and quality control solutions for pharmacokinetic study were […]
row,AUC(0-t),SMILES
1,556 ± 224 ng·h/mL,"COc1ccc2c(c1O)-c1c(O)c(OC)cc3c1[C@H](C2)[N+](C)(C)CC3 [Compound 19, magnoflorine]"
2,16.7 ± 9.45 ng·h/mL,"COc1cc2c(cc1OC)-c1cc3ccc4c(c3c[n+]1CC2)OCO4 [Compound 22, epiberberine]"

row,SMILES,AUC(0-t)
1,"COc1cc2c(cc1O)CC[n+]1cc3c(OC)c(OC)ccc3cc1-2 [Compound 23, jatrorrhizine]",119 ± 52.4 ng·h/mL

# Same assay, conditions: male, Sprague-Dawley, rat, plasma, po, 3.54 g/kg; Huang-Lian group: rats, oral 3.54 g/kg, plasma; read-out: AUClast
row,SMILES,AUC(0-t)
1,"COc1cc2c(cc1O)CC[n+]1cc3c(OC)c(OC)ccc3cc1-2 [Compound 23, jatrorrhizine]",119 ± 52.4 ng·h/mL

# Same assay, conditions: male, Sprague-Dawley, rat, plasma, po, 16.5 g/kg, GQD-GC group (GQD without Gan-Cao): rats, oral 16.5 g/kg, plasma; read-out: AUClast
row,AUC(0-t),SMILES
1,47.3 ± 9.31 ng·h/mL,"COc1ccc2c(c1O)-c1c(O)c(OC)cc3c1[C@H](C2)[N+](C)(C)CC3 [Compound 19, magnoflorine]"
2,26.4 ± 11 ng·h/mL,"COc1cc2c(cc1OC)-c1cc3ccc4c(c3c[n+]1CC2)OCO4 [Compound 22, epiberberine]"

row,SMILES,AUC(0-t)
1,"COc1cc2c(cc1O)CC[n+]1cc3c(OC)c(OC)ccc3cc1-2 [Compound 23, jatrorrhizine]",105 ± 34.2 ng·h/mL

# Same assay, conditions: male, Sprague-Dawley, rat, plasma, po, 16.5 g/kg; GQD−GC group: rats, oral 16.5 g/kg, plasma; read-out: AUClast
row,SMILES,AUC(0-t)
1,"COc1cc2c(cc1O)CC[n+]1cc3c(OC)c(OC)ccc3cc1-2 [Compound 23, jatrorrhizine]",105 ± 34.2 ng·h/mL

# Same assay, conditions: male, Sprague-Dawley, rat, plasma, po, 18.9 g/kg, GQD group: rats, oral GQD extract 18.9 g/kg, plasma; read-out: AUClast
row,AUC(0-t),SMILES
1,198 ± 74.9 ng·h/mL,"COc1ccc2c(c1O)-c1c(O)c(OC)cc3c1[C@H](C2)[N+](C)(C)CC3 [Compound 19, magnoflorine]"
2,29.4 ± 21.3 ng·h/mL,"COc1cc2c(cc1OC)-c1cc3ccc4c(c3c[n+]1CC2)OCO4 [Compound 22, epiberberine]"

row,SMILES,AUC(0-t)
1,"COc1cc2c(cc1O)CC[n+]1cc3c(OC)c(OC)ccc3cc1-2 [Compound 23, jatrorrhizine]",195 ± 25.7 ng·h/mL

# Same assay, conditions: male, Sprague-Dawley, rat, plasma, po, 18.9 g/kg; GQD group: rats, oral GQD 18.9 g/kg (1.5-fold of clinical dosage), plasma; read-out: AUClast
row,SMILES,AUC(0-t)
1,"COc1ccc2c(c1O)-c1c(O)c(OC)cc3c1[C@H](C2)[N+](C)(C)CC3 [Compound 19, magnoflorine]",> 100 ng·h/mL
2,"COc1cc2c(cc1O)CC[n+]1cc3c(OC)c(OC)ccc3cc1-2 [Compound 23, jatrorrhizine]",> 100 ng·h/mL

# Same assay, conditions: male, Sprague-Dawley, rat; GQD group: rats, oral GQD extract 18.9 g/kg, plasma; read-out: Cmax
row,Cmax,SMILES
1,19.7 ± 5.67 ng/mL,"COc1ccc2c(c1O)-c1c(O)c(OC)cc3c1[C@H](C2)[N+](C)(C)CC3 [Compound 19, magnoflorine]"
2,7.21 ± 3.62 ng/mL,"COc1cc2c(cc1OC)-c1cc3ccc4c(c3c[n+]1CC2)OCO4 [Compound 22, epiberberine]"

row,SMILES,Cmax
1,"COc1cc2c(cc1O)CC[n+]1cc3c(OC)c(OC)ccc3cc1-2 [Compound 23, jatrorrhizine]",8.54 ± 0.05 ng/mL

# Same assay, conditions: male, Sprague-Dawley, rat; GQD group: rats, oral GQD extract 18.9 g/kg, plasma; read-out: T1/2 (converted)
row,half-life,SMILES
1,8.35 ± 1.26 h,"COc1ccc2c(c1O)-c1c(O)c(OC)cc3c1[C@H](C2)[N+](C)(C)CC3 [Compound 19, magnoflorine]"
2,4.84 ± 0.13 h,"COc1cc2c(cc1OC)-c1cc3ccc4c(c3c[n+]1CC2)OCO4 [Compound 22, epiberberine]"

row,SMILES,half-life
1,"COc1cc2c(cc1O)CC[n+]1cc3c(OC)c(OC)ccc3cc1-2 [Compound 23, jatrorrhizine]",6.97 ± 1.77 h

# Same assay, conditions: male, Sprague-Dawley, rat; GQD group: rats, oral GQD extract 18.9 g/kg, plasma; read-out: Tmax
row,Tmax,SMILES
1,4.13 ± 1.21 h,"COc1ccc2c(c1O)-c1c(O)c(OC)cc3c1[C@H](C2)[N+](C)(C)CC3 [Compound 19, magnoflorine]"
2,0.58 ± 0.12 h,"COc1cc2c(cc1OC)-c1cc3ccc4c(c3c[n+]1CC2)OCO4 [Compound 22, epiberberine]"

row,SMILES,Tmax
1,"COc1cc2c(cc1O)CC[n+]1cc3c(OC)c(OC)ccc3cc1-2 [Compound 23, jatrorrhizine]",0.72 ± 0.11 h

# Same assay, conditions: male, Sprague-Dawley, rat; GQD-GC group (GQD without Gan-Cao): rats, oral 16.5 g/kg, plasma; read-out: Cmax
row,Cmax,SMILES
1,5.21 ± 1.2 ng/mL,"COc1ccc2c(c1O)-c1c(O)c(OC)cc3c1[C@H](C2)[N+](C)(C)CC3 [Compound 19, magnoflorine]"
2,9.35 ± 1.71 ng/mL,"COc1cc2c(cc1OC)-c1cc3ccc4c(c3c[n+]1CC2)OCO4 [Compound 22, epiberberine]"

row,SMILES,Cmax
1,"COc1cc2c(cc1O)CC[n+]1cc3c(OC)c(OC)ccc3cc1-2 [Compound 23, jatrorrhizine]",9.14 ± 0.82 ng/mL

# Same assay, conditions: male, Sprague-Dawley, rat; GQD-GC group (GQD without Gan-Cao): rats, oral 16.5 g/kg, plasma; read-out: T1/2 (converted)
row,half-life,SMILES
1,4.54 ± 1.43 h,"COc1ccc2c(c1O)-c1c(O)c(OC)cc3c1[C@H](C2)[N+](C)(C)CC3 [Compound 19, magnoflorine]"
2,4.97 ± 0.85 h,"COc1cc2c(cc1OC)-c1cc3ccc4c(c3c[n+]1CC2)OCO4 [Compound 22, epiberberine]"

row,SMILES,half-life
1,"COc1cc2c(cc1O)CC[n+]1cc3c(OC)c(OC)ccc3cc1-2 [Compound 23, jatrorrhizine]",3.12 ± 0.13 h

# Same assay, conditions: male, Sprague-Dawley, rat; GQD-GC group (GQD without Gan-Cao): rats, oral 16.5 g/kg, plasma; read-out: Tmax
row,Tmax,SMILES
1,0.28 ± 0.13 h,"COc1ccc2c(c1O)-c1c(O)c(OC)cc3c1[C@H](C2)[N+](C)(C)CC3 [Compound 19, magnoflorine]"
2,0.54 ± 0.17 h,"COc1cc2c(cc1OC)-c1cc3ccc4c(c3c[n+]1CC2)OCO4 [Compound 22, epiberberine]"

row,SMILES,Tmax
1,"COc1cc2c(cc1O)CC[n+]1cc3c(OC)c(OC)ccc3cc1-2 [Compound 23, jatrorrhizine]",0.63 ± 0.32 h

# Same assay, conditions: male, Sprague-Dawley, rat; HL (Huang-Lian) group: rats, oral extract 3.54 g/kg, plasma; read-out: Cmax
row,Cmax,SMILES
1,76.4 ± 23.4 ng/mL,"COc1ccc2c(c1O)-c1c(O)c(OC)cc3c1[C@H](C2)[N+](C)(C)CC3 [Compound 19, magnoflorine]"
2,3.53 ± 0.34 ng/mL,"COc1cc2c(cc1OC)-c1cc3ccc4c(c3c[n+]1CC2)OCO4 [Compound 22, epiberberine]"

row,SMILES,Cmax
1,"COc1cc2c(cc1O)CC[n+]1cc3c(OC)c(OC)ccc3cc1-2 [Compound 23, jatrorrhizine]",6.6 ± 0.59 ng/mL

# Same assay, conditions: male, Sprague-Dawley, rat; HL (Huang-Lian) group: rats, oral extract 3.54 g/kg, plasma; read-out: T1/2 (converted)
row,half-life,SMILES
1,10.2 ± 4.34 h,"COc1ccc2c(c1O)-c1c(O)c(OC)cc3c1[C@H](C2)[N+](C)(C)CC3 [Compound 19, magnoflorine]"
2,4.34 ± 0.18 h,"COc1cc2c(cc1OC)-c1cc3ccc4c(c3c[n+]1CC2)OCO4 [Compound 22, epiberberine]"

row,SMILES,half-life
1,"COc1cc2c(cc1O)CC[n+]1cc3c(OC)c(OC)ccc3cc1-2 [Compound 23, jatrorrhizine]",5.15 ± 1.74 h

# Same assay, conditions: male, Sprague-Dawley, rat; HL (Huang-Lian) group: rats, oral extract 3.54 g/kg, plasma; read-out: Tmax
row,Tmax,SMILES
1,4.21 ± 3.47 h,"COc1ccc2c(c1O)-c1c(O)c(OC)cc3c1[C@H](C2)[N+](C)(C)CC3 [Compound 19, magnoflorine]"
2,0.58 ± 0.23 h,"COc1cc2c(cc1OC)-c1cc3ccc4c(c3c[n+]1CC2)OCO4 [Compound 22, epiberberine]"

row,SMILES,Tmax
1,"COc1cc2c(cc1O)CC[n+]1cc3c(OC)c(OC)ccc3cc1-2 [Compound 23, jatrorrhizine]",0.61 ± 0.11 h

# Same assay, conditions: rats, oral; GQD vs Huang-Lian
row,SMILES,increase of AUClast in GQD group compared with the Huang-Lian group
1,"COc1cc2c(cc1O)CC[n+]1cc3c(OC)c(OC)ccc3cc1-2 [Compound 23, jatrorrhizine]",63.6%
